Results published in the NIST ThermoML archive (doi:10.1021/je5005752).
± gives the expanded uncertainty stated by the source.

Test: xn = mol fraction of the nth substance listed
Conditions: 101 kPa, Liquid; for viscosity: Falling or rolling sphere viscometry; for mass density: Vibrating tube method

CCCC(=O)OCC [ethyl butanoate] + CCCO
Conditions	mass density [kg/m3]	viscosity [mPa·s]
288.15 K, x1 = 0.1001	819.96 ± 0.21	1.784 ± 0.038
288.15 K, x1 = 0.2	830.48 ± 0.21	1.392 ± 0.03
288.15 K, x1 = 0.2999	839.77 ± 0.21	1.151 ± 0.025
288.15 K, x1 = 0.3994	848.08 ± 0.22	1.008 ± 0.022
288.15 K, x1 = 0.4999	855.6 ± 0.22	0.9046 ± 0.019
288.15 K, x1 = 0.6002	862.45 ± 0.23	0.8354 ± 0.018
288.15 K, x1 = 0.6998	868.56 ± 0.24	0.7874 ± 0.017
288.15 K, x1 = 0.8001	874.16 ± 0.25	0.7517 ± 0.016
288.15 K, x1 = 0.9001	879.26 ± 0.25	0.7286 ± 0.016
288.15 K, x1 = 1	884.16 ± 0.27	0.7224 ± 0.016
293.15 K, x1 = 0.1001	815.72 ± 0.21	1.599 ± 0.034
293.15 K, x1 = 0.2	826.03 ± 0.21	1.262 ± 0.027
293.15 K, x1 = 0.2999	835.14 ± 0.21	1.054 ± 0.023
293.15 K, x1 = 0.3994	843.3 ± 0.22	0.9293 ± 0.02
293.15 K, x1 = 0.4999	850.69 ± 0.22	0.8397 ± 0.018
293.15 K, x1 = 0.6002	857.44 ± 0.23	0.779 ± 0.017
293.15 K, x1 = 0.6998	863.46 ± 0.24	0.737 ± 0.016
293.15 K, x1 = 0.8001	868.99 ± 0.25	0.706 ± 0.015
293.15 K, x1 = 0.9001	874.03 ± 0.26	0.6861 ± 0.015
293.15 K, x1 = 1	878.9 ± 0.27	0.6808 ± 0.015
298.15 K, x1 = 0.1001	811.45 ± 0.21	1.438 ± 0.031
298.15 K, x1 = 0.2	821.55 ± 0.21	1.147 ± 0.025
298.15 K, x1 = 0.2999	830.49 ± 0.21	0.9686 ± 0.021
298.15 K, x1 = 0.3994	838.5 ± 0.22	0.8586 ± 0.018
298.15 K, x1 = 0.4999	845.76 ± 0.22	0.7808 ± 0.017
298.15 K, x1 = 0.6002	852.4 ± 0.23	0.7275 ± 0.016
298.15 K, x1 = 0.6998	858.34 ± 0.24	0.6906 ± 0.015
298.15 K, x1 = 0.8001	863.8 ± 0.25	0.6636 ± 0.014
298.15 K, x1 = 0.9001	868.79 ± 0.26	0.6465 ± 0.014
298.15 K, x1 = 1	873.62 ± 0.27	0.643 ± 0.014
303.15 K, x1 = 0.1001	807.15 ± 0.21	1.3 ± 0.028
303.15 K, x1 = 0.2	817.04 ± 0.21	1.048 ± 0.022
303.15 K, x1 = 0.2999	825.81 ± 0.22	0.8932 ± 0.019
303.15 K, x1 = 0.3994	833.68 ± 0.22	0.7965 ± 0.017
303.15 K, x1 = 0.4999	840.81 ± 0.23	0.727 ± 0.016
303.15 K, x1 = 0.6002	847.35 ± 0.23	0.68 ± 0.015
303.15 K, x1 = 0.6998	853.2 ± 0.24	0.6481 ± 0.014
303.15 K, x1 = 0.8001	858.59 ± 0.25	0.624 ± 0.014
303.15 K, x1 = 0.9001	863.53 ± 0.26	0.6098 ± 0.013
303.15 K, x1 = 1	868.33 ± 0.27	0.6072 ± 0.013
308.15 K, x1 = 0.1001	802.83 ± 0.21	1.179 ± 0.025
308.15 K, x1 = 0.2	812.51 ± 0.21	0.959 ± 0.021
308.15 K, x1 = 0.2999	821.1 ± 0.22	0.8239 ± 0.018
308.15 K, x1 = 0.3994	828.82 ± 0.22	0.7391 ± 0.016
308.15 K, x1 = 0.4999	835.83 ± 0.23	0.6786 ± 0.015
308.15 K, x1 = 0.6002	842.27 ± 0.23	0.638 ± 0.014
308.15 K, x1 = 0.6998	848.03 ± 0.24	0.6089 ± 0.013
308.15 K, x1 = 0.8001	853.36 ± 0.25	0.5882 ± 0.013
308.15 K, x1 = 0.9001	858.26 ± 0.26	0.5756 ± 0.013
308.15 K, x1 = 1	863.02 ± 0.27	0.5736 ± 0.013
313.15 K, x1 = 0.1001	798.47 ± 0.21	1.073 ± 0.023
313.15 K, x1 = 0.2	807.94 ± 0.21	0.8796 ± 0.019
313.15 K, x1 = 0.2999	816.35 ± 0.22	0.7599 ± 0.016
313.15 K, x1 = 0.3994	823.93 ± 0.22	0.6873 ± 0.015
313.15 K, x1 = 0.4999	830.81 ± 0.23	0.6338 ± 0.014
313.15 K, x1 = 0.6002	837.16 ± 0.23	0.598 ± 0.013
313.15 K, x1 = 0.6998	842.84 ± 0.24	0.5722 ± 0.012
313.15 K, x1 = 0.8001	848.11 ± 0.25	0.5543 ± 0.012
313.15 K, x1 = 0.9001	852.96 ± 0.26	0.544 ± 0.012
313.15 K, x1 = 1	857.7 ± 0.27	0.5424 ± 0.012
318.15 K, x1 = 0.1001	794.06 ± 0.21	0.9782 ± 0.021
318.15 K, x1 = 0.2	803.33 ± 0.21	0.8084 ± 0.017
318.15 K, x1 = 0.2999	811.58 ± 0.22	0.7044 ± 0.015
318.15 K, x1 = 0.3994	819 ± 0.22	0.6398 ± 0.014
318.15 K, x1 = 0.4999	825.77 ± 0.23	0.5926 ± 0.013
318.15 K, x1 = 0.6002	832 ± 0.23	0.5612 ± 0.012
318.15 K, x1 = 0.6998	837.62 ± 0.24	0.5398 ± 0.012
318.15 K, x1 = 0.8001	842.82 ± 0.25	0.5227 ± 0.011
318.15 K, x1 = 0.9001	847.64 ± 0.26	0.5138 ± 0.011
318.15 K, x1 = 1	852.36 ± 0.27	0.5132 ± 0.011
323.15 K, x1 = 0.1001	789.62 ± 0.21	0.9018 ± 0.019
323.15 K, x1 = 0.2	798.67 ± 0.22	0.7475 ± 0.016
323.15 K, x1 = 0.2999	806.74 ± 0.22	0.6572 ± 0.014
323.15 K, x1 = 0.3994	814.03 ± 0.22	0.601 ± 0.013
323.15 K, x1 = 0.4999	820.68 ± 0.23	0.5568 ± 0.012
323.15 K, x1 = 0.6002	826.83 ± 0.23	0.5301 ± 0.011
323.15 K, x1 = 0.6998	832.37 ± 0.24	0.5106 ± 0.011
323.15 K, x1 = 0.8001	837.52 ± 0.25	0.4955 ± 0.011
323.15 K, x1 = 0.9001	842.3 ± 0.26	0.488 ± 0.011
323.15 K, x1 = 1	847 ± 0.27	0.487 ± 0.011
